# According to US20220323454A1, “PHENOTHIAZINES AND THEIR DERIVATIVES FOR USE AS A MEDICAMENT” (Guangzhou Virotech Pharmaceutical Co., Ltd., priority 2019, published 2022):
# Tests used:
# OT-1 CTL cells = test: CTL cell division under PD-L1 protein inhibition (CFSE, flow cytometry); assay type: cell-based; details: 100 nM MTC; 10 nM SIINFEKL, 10 nM IL-2, 10 μg/mL mouse PD-L1 protein; 24, 48, 72 hours; FIG. 2B
# Protocol: (1) Preparation of CTL cells: The spleens of OT1 mice were obtained, ground and added with red blood cell lysate, to prepare single-cell suspension. The culture medium was 1640+10% FBS+50 μM βME+10 nM IL-2. Cell density was adjusted to about 2-4 million/mL. The cells were added with 10 nM OVA257-264, and cultured in a cell incubator at 37° C., 5% CO2. From the day of CTL preparation, cells were stained with FITC-labeled PD-1 antibody every day, and the changes of PD-1 expression on the cell surfaces were detected by flow cytometry.
# (2) The CTL cells were labeled with 5 nM CFSE, stimulated by 10 nM SIINFEKL and 10 nM IL-2, and added with 10 μg/mL mouse PD-L1 protein. The experimental group was also added with 100 nM MTC and stimulated for 24, 48, and 72 hours. The effects of PD-L1 protein and MTC on CTL cell division were observed by flow cytometry.
# [1] = system: EGFR-L858R mutant orthotopic tumors; test: EGFR-L858R transgenic mouse orthotopic lung cancer model (CT); assay type: in vivo; details: FIG. 6B
# Excerpt: The advantages of xenograft models are that the antigenic epitopes recognized by T cells are very clear, and the system is pure for elucidation. The disadvantage is that this model cannot simulate the complex carcinogenesis, tumorigenesis, and interactions of tumor and stromal cells of the primary cancer. Therefore, murine xenograft models are less predictive of drug effects in human patients. Therefore, in this example, the effect of the MTC of the present invention in treating tumors was further investigated by using a transgenic lung cancer mouse model. […] One to two months later, lung cancer in mice could be detected and recorded by computed tomography (CT). […]
# (2) The size and severity of the tumors was recorded by computed tomography (CT).
# (3) The tumor-bearing mice were randomly divided into groups and given placebo (HKI solution) and MTC (40 mg/kg/day in HKI solution). After 2 weeks of treatment, tumor sizes were recorded by CT again.
# Mice were intraperitoneally injected with CD8 antibody […] one week in advance to deplete CD8+ cells in the tumor-bearing mice. The mice were then co-treated with MTC and CD8 antibody for 2 weeks, and the tumor size was recorded by CT.
# EL4-OVA-mPDL1 cells = test: EL4-OVA-mPDL1 subcutaneous transplanted tumor in Rag1−/− mice given CTL cells; assay type: in vivo, mouse
# Protocol: (1) Lymphoma cells overexpressing chicken ovalbumin OVA and mouse PD-L1, namely EL4-OVA-mPDL1 cells, were resuspended in BD Matrigel, in which, for one side of one mouse, 2×10^6 cells were resuspended in 100 μl BD Matrigel.
# (2) The mixture of cells and Matrigel was inoculated into the left and right flanks of Rag1−/− mice subcutaneously, each at a dosage of 100 μl.
# (3) When the tumor was fixed about 5 days after inoculation, activated OT-1 T cells (i.e., 2×10^6 CTL cells/mouse) were injected through the tail vein, and the mice were divided into 3 groups, namely the CTL cell group, the CTL cell +10 mg/kg/2 days PD-1 antibody group, and the CTL cell +40 mg/kg/day MTC group.
# (4) The length and width of the transplanted tumor of each group of mice were measured from the day of tail vein injection of CTL cells, and every other day, and the tumor volume was calculated as length×width^2/2 (FIG. 5A).
# PD-1 recruitment of SHP2 [2] = target: T1, PD-1 recruitment of SHP2 (Homo sapiens, UniProt Q06124+Q15116); test: Confocal localization of PD-1-GFP and SHP2-mCherry in 293T cells; assay type: cell-based; details: 293T stable cell line, MTC 6 hours, then 1 μM PVD 5 minutes
# T1 construct: expressed in transfected cells
# Protocol: (2) Fusion genes PD-1-GFP and SHP2-mCherry were transfected into 293T cells with liposomes to construct a stable cell line. The cells were added with MTC at different concentrations, cultured for 6 hours, and then treated with 1 μM PVD (a dephosphorylase inhibitor) for 5 minutes. Cells were fixed with 4% paraformaldehyde and the effect of MTC on the localization of GFP and mCherry, namely PD-1 and SHP2, was observed under Confocal.
# PD-1 recruitment of SHP2 [3] = target: T1, PD-1 recruitment of SHP2; test: Split-luciferase PD-1-Cluc / Nluc-SHP2 interaction in 293T cells; assay type: cell-based; details: 293T stable cell line, different concentrations of MTC, 6 hours; FIG. 7A
# Excerpt: This example preliminarily explored the mechanism by which MTC inhibits PD-1 signaling, and assessed the ability of MTC to affect PD-1 recruitment of SHP2. The binding of PD-1 to ligands can recruit SHP2 protein to the surrounding T cell receptors, thereby inhibiting the activation of T cell receptor proximal kinases, reducing Lck-mediated phosphorylation of ZAP-70 protein and the initiation of downstream signaling pathways. Luciferase can be split into two fragments, N-terminal and C-terminal. When the two fragments are fused with other proteins, the activity of luciferase can be detected if the N-terminal and C-terminal luciferase fragments are close due to the interaction of their fusion proteins. Therefore, the strength of the interaction of the fused proteins can indirectly detected by measuring the activity of luciferase.
# (1) Fusion genes PD-1-Cluc and Nluc-SHP2 were transfected into 293T cells with liposomes to construct a stable cell line. The cells were added with different concentrations of MTC and cultured for 6 hours to observe the effect of MTC on the reading of luciferase.
# T1 sequence (Q15116 25-288): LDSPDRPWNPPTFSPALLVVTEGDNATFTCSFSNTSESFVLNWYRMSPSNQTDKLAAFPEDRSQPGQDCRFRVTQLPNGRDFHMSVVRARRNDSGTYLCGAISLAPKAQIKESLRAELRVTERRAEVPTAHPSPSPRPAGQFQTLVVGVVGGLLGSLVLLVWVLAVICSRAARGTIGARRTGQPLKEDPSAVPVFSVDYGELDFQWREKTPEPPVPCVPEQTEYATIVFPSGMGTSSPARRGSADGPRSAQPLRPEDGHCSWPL
# T1 sequence (Q06124 whole entry): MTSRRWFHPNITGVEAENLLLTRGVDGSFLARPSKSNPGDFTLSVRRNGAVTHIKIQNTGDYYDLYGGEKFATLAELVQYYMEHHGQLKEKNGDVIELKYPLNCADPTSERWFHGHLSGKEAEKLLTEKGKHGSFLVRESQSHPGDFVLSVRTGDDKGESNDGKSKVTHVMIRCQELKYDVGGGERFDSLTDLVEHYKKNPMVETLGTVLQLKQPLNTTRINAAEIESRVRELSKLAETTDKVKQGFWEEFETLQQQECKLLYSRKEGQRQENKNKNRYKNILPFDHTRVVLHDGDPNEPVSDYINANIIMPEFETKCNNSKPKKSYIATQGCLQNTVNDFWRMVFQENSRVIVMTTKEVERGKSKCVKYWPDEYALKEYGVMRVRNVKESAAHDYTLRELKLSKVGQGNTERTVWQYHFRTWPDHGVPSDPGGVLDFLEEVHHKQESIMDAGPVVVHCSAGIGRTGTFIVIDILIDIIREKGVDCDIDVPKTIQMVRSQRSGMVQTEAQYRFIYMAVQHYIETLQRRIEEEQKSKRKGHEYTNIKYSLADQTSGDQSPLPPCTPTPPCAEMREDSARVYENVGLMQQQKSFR
structure (smiles),measurement,setting,value
"CN(C)c1ccc2nc3ccc(N(C)C)cc3[s+]c2c1 [MTC, 3,7-bis(dimethylamino)-phenothiazine-5-ium chloride]",CTL cell division inhibited by PD-L1 protein,OT-1 CTL cells,reversed the inhibition
same,tumor growth in the case of CD8+ T cell depletion,"[1]; CD8 antibody one week in advance, then MTC and CD8 antibody for 2 weeks",not inhibited
same,tumors by CT imaging,"[1]; MTC 40 mg/kg/day in HKI solution, 14 days",basically cleared
same,tumor growth (tumor volume and tumor weight),"EL4-OVA-mPDL1 cells; CTL cells by tail vein, MTC 40 mg/kg/day intragastric, PD-1 antibody 10 mg/kg/2 days intraperitoneal, vs CTL cell-only group, FIGS. 5B, C, D",strongly inhibited tumor growth
same,therapeutic effect of CTL+MTC compared with CTL+PD-1 antibody treatment group,EL4-OVA-mPDL1 cells; MTC 40 mg/kg/day vs PD-1 antibody 10 mg/kg/2 days,better therapeutic effect
same,localization of SHP2-mCherry relative to PD-1-GFP,PD-1 recruitment of SHP2 [2],dissociation of mCherry from the membrane
same,readings of luciferase (PD-1-Cluc / Nluc-SHP2 interaction),PD-1 recruitment of SHP2 [3],reduce the readings of luciferase
